Assay results from the supplement of paper PMC10307832.

Legend:
Assay in all cases: relative viability (nuclei count vs DMSO), 5 days (fraction); higher = more cells survive
UMC-11 = system: UMC-11
How it was run: (§1)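 Values are medians from duplicate plates. Each reflects relative viability, defined as the nuclei count of treated wells over that of vehicle wells. Lung cancer cell lines in 1536-well plates were pin-tool dosed one day after seeding with one drug alone or with a fixed anchor-drug dose plus five library-drug doses (not always all listed) in √10 steps, then fixed, stained and imaged at 4× after 5 days.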

SK-LU-1 = system: SK-LU-1
How it was run: as §1

NCI-H358 = system: NCI-H358
How it was run: as §1

A-427 = system: A-427
How it was run: as §1

LU99A = system: LU99A
How it was run: as §1

NCI-H460 = system: NCI-H460
How it was run: as §1

COR-L 105 = system: COR-L 105
How it was run: as §1

NCI-H1915 = system: NCI-H1915
How it was run: as §1

EPLC-272H = system: EPLC-272H
How it was run: as §1

SW 900 = system: SW 900
How it was run: as §1

HOP-62 = system: HOP-62
How it was run: as §1

NCI-H1666 = system: NCI-H1666
How it was run: as §1

HCC-78 = system: HCC-78
How it was run: as §1

NCI-H1944 = system: NCI-H1944
How it was run: as §1

NCI-H2009 = system: NCI-H2009
How it was run: as §1

HCC-366 = system: HCC-366
How it was run: as §1

LC-2-ad = system: LC-2-ad
How it was run: as §1

LXF-289 = system: LXF-289
How it was run: as §1

NCI-H2085 = system: NCI-H2085
How it was run: as §1

NCI-H1793 = system: NCI-H1793
How it was run: as §1

NCI-H2170 = system: NCI-H2170
How it was run: as §1

NCI-H1792 = system: NCI-H1792
How it was run: as §1

CCN(CC)CCCCNc1ncc2cc(-c3cc(OC)cc(OC)c3)c(NC(=O)NC(C)(C)C)nc2n1 + Cc1nc(Nc2ncc(C(=O)Nc3c(C)cccc3Cl)s2)cc(N2CCN(CCO)CC2)n1 [Dasatinib] (partner 0.075 µM)
relative viability (UMC-11; first compound 0.01 µM): 0.541
relative viability (UMC-11; first compound 0.03162 µM): 0.485
relative viability (UMC-11; first compound 0.1 µM): 0.722
relative viability (UMC-11; first compound 0.3162 µM): 0.581
relative viability (UMC-11; first compound 1 µM): 0.405
relative viability (SK-LU-1; first compound 0.01 µM): 0.158
relative viability (SK-LU-1; first compound 0.03162 µM): 0.163
relative viability (SK-LU-1; first compound 0.1 µM): 0.177
relative viability (SK-LU-1; first compound 0.3162 µM): 0.194
relative viability (SK-LU-1; first compound 1 µM): 0.13
relative viability (NCI-H358; first compound 0.01 µM): 0.169
relative viability (NCI-H358; first compound 0.03162 µM): 0.127
relative viability (NCI-H358; first compound 0.1 µM): 0.157
relative viability (NCI-H358; first compound 0.3162 µM): 0.147
relative viability (NCI-H358; first compound 1 µM): 0.198
relative viability (A-427; first compound 0.01 µM): 0.749
relative viability (A-427; first compound 0.03162 µM): 0.647
relative viability (A-427; first compound 0.1 µM): 0.924
relative viability (A-427; first compound 0.3162 µM): 0.646
relative viability (A-427; first compound 1 µM): 0.565
relative viability (LU99A; first compound 0.01 µM): 0.508
relative viability (LU99A; first compound 0.03162 µM): 0.611
relative viability (LU99A; first compound 0.1 µM): 0.712
relative viability (LU99A; first compound 0.3162 µM): 0.499
relative viability (LU99A; first compound 1 µM): 0.445
relative viability (NCI-H460; first compound 0.01 µM): 0.538
relative viability (NCI-H460; first compound 0.03162 µM): 0.464
relative viability (NCI-H460; first compound 0.1 µM): 0.81
relative viability (NCI-H460; first compound 0.3162 µM): 0.709
relative viability (NCI-H460; first compound 1 µM): 0.395
relative viability (COR-L 105; first compound 0.01 µM): 0.297
relative viability (COR-L 105; first compound 0.03162 µM): 0.282
relative viability (COR-L 105; first compound 0.1 µM): 0.354
relative viability (COR-L 105; first compound 0.3162 µM): 0.381
relative viability (COR-L 105; first compound 1 µM): 0.279
relative viability (NCI-H1915; first compound 0.01 µM): 0.303
relative viability (NCI-H1915; first compound 0.03162 µM): 0.306
relative viability (NCI-H1915; first compound 0.1 µM): 0.361
relative viability (NCI-H1915; first compound 0.3162 µM): 0.286
relative viability (NCI-H1915; first compound 1 µM): 0.297
relative viability (EPLC-272H; first compound 0.01 µM): 0.379
relative viability (EPLC-272H; first compound 0.03162 µM): 1.08
relative viability (EPLC-272H; first compound 0.1 µM): 0.322
relative viability (EPLC-272H; first compound 0.3162 µM): 0.294
relative viability (EPLC-272H; first compound 1 µM): 0.241
relative viability (SW 900; first compound 0.01 µM): 0.346
relative viability (SW 900; first compound 0.03162 µM): 0.673
relative viability (SW 900; first compound 0.3162 µM): 0.345
relative viability (SW 900; first compound 1 µM): 0.268
relative viability (HOP-62; first compound 0.01 µM): 0.67
relative viability (HOP-62; first compound 0.03162 µM): 0.726
relative viability (HOP-62; first compound 0.1 µM): 0.828
relative viability (HOP-62; first compound 0.3162 µM): 0.707
relative viability (HOP-62; first compound 1 µM): 0.417
relative viability (NCI-H1666; first compound 0.01 µM): 0.824
relative viability (NCI-H1666; first compound 0.03162 µM): 0.757
relative viability (NCI-H1666; first compound 0.1 µM): 0.942
relative viability (NCI-H1666; first compound 0.3162 µM): 0.884
relative viability (NCI-H1666; first compound 1 µM): 0.639
relative viability (HCC-78; first compound 0.01 µM): 0.46
relative viability (HCC-78; first compound 0.03162 µM): 0.361
relative viability (HCC-78; first compound 0.1 µM): 0.493
relative viability (HCC-78; first compound 0.3162 µM): 0.421
relative viability (HCC-78; first compound 1 µM): 0.364
relative viability (NCI-H1944; first compound 0.01 µM): 0.197
relative viability (NCI-H1944; first compound 0.03162 µM): 0.212
relative viability (NCI-H1944; first compound 0.1 µM): 0.22
relative viability (NCI-H1944; first compound 0.3162 µM): 0.236
relative viability (NCI-H1944; first compound 1 µM): 0.196
relative viability (NCI-H2009; first compound 0.01 µM): 0.299
relative viability (NCI-H2009; first compound 0.03162 µM): 0.316
relative viability (NCI-H2009; first compound 0.1 µM): 0.347
relative viability (NCI-H2009; first compound 0.3162 µM): 0.292
relative viability (NCI-H2009; first compound 1 µM): 0.246
relative viability (HCC-366; first compound 0.01 µM): 0.601
relative viability (HCC-366; first compound 0.03162 µM): 0.686
relative viability (HCC-366; first compound 0.1 µM): 0.942
relative viability (HCC-366; first compound 0.3162 µM): 0.659
relative viability (HCC-366; first compound 1 µM): 0.613
relative viability (LC-2-ad; first compound 0.01 µM): 0.575
relative viability (LC-2-ad; first compound 0.03162 µM): 0.679
relative viability (LC-2-ad; first compound 0.1 µM): 0.73
relative viability (LC-2-ad; first compound 0.3162 µM): 0.664
relative viability (LC-2-ad; first compound 1 µM): 0.344
relative viability (LXF-289; first compound 0.01 µM): 0.209
relative viability (LXF-289; first compound 0.03162 µM): 0.249
relative viability (LXF-289; first compound 0.1 µM): 0.266
relative viability (LXF-289; first compound 0.3162 µM): 0.167
relative viability (LXF-289; first compound 1 µM): 0.0987
relative viability (NCI-H2085; first compound 0.01 µM): 0.251
relative viability (NCI-H2085; first compound 0.03162 µM): 0.181
relative viability (NCI-H2085; first compound 0.1 µM): 0.278
relative viability (NCI-H2085; first compound 0.3162 µM): 0.231
relative viability (NCI-H2085; first compound 1 µM): 0.216
relative viability (NCI-H1793; first compound 0.01 µM): 0.369
relative viability (NCI-H1793; first compound 0.03162 µM): 0.312
relative viability (NCI-H1793; first compound 0.1 µM): 0.372
relative viability (NCI-H1793; first compound 0.3162 µM): 0.283
relative viability (NCI-H1793; first compound 1 µM): 0.271
relative viability (NCI-H2170; first compound 0.01 µM): 0.537
relative viability (NCI-H2170; first compound 0.03162 µM): 0.574
relative viability (NCI-H2170; first compound 0.1 µM): 0.643
relative viability (NCI-H2170; first compound 0.3162 µM): 0.818
relative viability (NCI-H2170; first compound 1 µM): 0.539
relative viability (NCI-H1792; first compound 0.01 µM): 0.734
relative viability (NCI-H1792; first compound 0.03162 µM): 0.849
relative viability (NCI-H1792; first compound 0.1 µM): 0.837
relative viability (NCI-H1792; first compound 0.3162 µM): 0.671
relative viability (NCI-H1792; first compound 1 µM): 0.475
